The text below walks through data of patent publication US20260294863A1, “METHOD OF TREATING FIBROTIC-RELATED CONDITION” (YISSUM RESEARCH DEVELOPMENT COMPANY OF THE HEBREW …, priority 2023, published 2026).

The test system of test [1] is skin sclerosis. Briefly: Dermal and hypodermal thickness in bleomycin-induced skin sclerosis. It is filed as in vivo, C57BL/6 mice. Particulars: ladostigil 10 mg/kg/day + bleomycin; p<0.05. The protocol:
(§1) Male C57BL/6 mice aged 8 weeks were housed under pathogen-free conditions at a controlled temperature of 22-24° C., humidity and alternating 12-h light/dark cycles and provided with food and water ad libitum. Skin sclerosis was induced as described by Ravanetti et al, (2020). A small incision was made in the skin at the back caudal to the scapulae and subcutaneous pocket was created into which an Alzet micro-osmotic pump was implanted, and the incision closed with two stiches and a surgical clip. The pumps contained bleomycin, (delivered at the rate of 60 U/kg body weight) or saline (control) and were removed 10 days after implantation. The mice were monitored daily until they recovered completely and weighed twice weekly from the beginning of the experiment.
(§2) Ladostigil (10 mg/kg/day) was administered in the drinking fluid to 10 mice, housed 2/cage, from 3 days before bleomycin pump installation until the end of the experiment. The fluid intake of the mice was measured daily. The dose of ladostigil was adjusted accordingly. Bleomycin alone, (10 mice) and saline controls (6 mice) received regular drinking fluid.
Skin was harvested on the gluteal region to avoid dermal fibrosis artifact due to proximity to the site of implant. For histological assessment, the samples were dehydrated in a graded ethanol series, clarified in xylene, and paraffin embedded. They were mounted on slides and paraffin was removed. Sections of 5 μm thickness were cut with a rotary microtome and stained with hematoxylin and eosin (H&E)

Test [2] in a line: Body weight in bleomycin-induced lung fibrosis. The note with it: bleomycin lung fibrosis. It counts as in vivo, C57BL/6JOlaHsd mice. The method, then:
The animal model of bleomycin-induced lung fibrosis is widely used to characterize the potential inhibitory effect of newly developed drugs (Distler et al. 2019). Experiments were performed in C57BL/6JOlaHsd male and female mice aged 12-13 weeks. Male mice weighed 23-27.3 g and female mice, 19.4-21.1 g. They were housed under pathogen-free conditions, up to 6 per cage, in IVC cages under a controlled temperature of 22-24° C., humidity and alternating 12-h light/dark cycles and provided with food and water ad libitum. In order to minimize the stress of daily injection, ladostigil (5 mg/Kg/day) was administered by micro-osmotic pumps, implanted subcutaneously under ketamine/xylazine anesthesia, 5 days before administration of bleomycin, and delivered for 3 weeks to mice of each sex. Saline (2-3/sex) and bleomycin controls were anesthetized as described above. Bleomycin solution (0.25 mg/kg in 50 μl) was instilled into the lumen of the trachea as shown in a video by Ehrentraut et al. (2019). […] Mice were weighed daily and sacrificed on day 21. Bronchial fluid was collected as described in Ehrentraut et al. (2019). TNFα and IL-6 in the bronchial fluid lavage was measured by ELISA as described in the preceding section.
Experiments were performed in C57BL/6JOlaHsd male mice aged 12-13 weeks as described for ladostigil. AN1284 (2.5 mg/kg/day) was administered by micro-osmotic pumps, implanted subcutaneously under ketamine/xylazine anesthesia, 5 days before administration of bleomycin and delivered for 3 weeks. Mice were weighed daily, sacrificed on day 21 and bronchial fluid was collected. Fibrosis was measured by staining with Sirius red as described for ladostigil. TNFα and IL-6 in the bronchial fluid lavage was measured by ELISA as described for ladostigil.

Test [3] concerns TGFβ. Briefly: TGFβ-containing cells in skin, bleomycin-induced skin sclerosis. It is filed as in vivo, C57BL/6 mice. Particulars: ladostigil 10 mg/kg/day + bleomycin; p<0.05. The protocol:
as §1, §2

Test [4] deals with NFκB. Particulars: LPS; cited from earlier work.
In test [5] the test system is IL6. Nature of the test: Secretion of IL6 from BzATP/LPS-activated microglia (ELISA). It counts as cell-based, Balb/C mice. The method, then:
(§3) Experiments were performed on primary microglial cells isolated from brains of neonatal Balb/C mice as previously described (Reichert and Rotshenker, 2003). The brains were stripped of their meninges and enzymatically dissociated. Cells were plated on Poly-L-lysine coated flasks for one week, re-plated for 1- to 2-hr on bacteriological plates and non-adherent cells were washed away. Microglia were propagated by incubation in 20% of medium, conditioned by the L-cell line that produces mouse-CSF. They were identified by morphology and positive immune-reactivity to P2y12, F4/80, complement receptor-3 and Galectin-3/MAC-2 (Reichert and Rotshenker 2003; Gitik et al. 2011).
(§4) Cytokines were measured as previously described (Shamash et al. 2002) using ELISA Max deluxe set (Biolegend, CA, USA) for secreted TNFα and IL-6 proteins and ELISA DuoSet (R&D systems, UK) for secreted and cell associated IL-1β, according to manufacturer's instructions.
(§5) The effect of ladostigil at concentrations of 1×10^−13 M to 1×10^−9 M on the secretion of cytokine proteins was assessed by adding it to microglia for 2 hr before LPS (0.75 μg/ml) and BzATP (400 μM). Other microglia were treated similarly with the steroid, budesonide as a reference standard at concentrations of 1× 10^−13 to 1× 10^−11 M. Measurements of cytokine secretion were performed 8 hrs after addition of LPS and BzATP. Since the levels of secreted IL-1β were still low, samples were concentrated 2- to 4-fold by an Amicon ultra-centrifugal filter device (Merck-Millipore, Ireland). ELISA was used to quantify the levels of cytokine proteins. Protein content in the microglia lysate was measured by Bradford and levels of cytokines were calculated and presented as pg/μg of microglial protein.
On the technique in general: In an ELISA, binding on a coated surface is turned into a signal by an enzyme label.

The subject of test [6] is IL1β. Briefly: Secretion of IL1β from BzATP/LPS-activated microglia (ELISA). It is filed as cell-based, Balb/C mice. The method, then: as §3, §4, §5
Test [7] concerns TNFAIP3. Briefly: Levels of TNFAIP3 protein in microglial cytoplasm. It counts as cell-based, Balb/C mice. The protocol: as §3
The addition of BzATP/LPS to microglia increased cytoplasmic levels of TNFαIP3 protein and nuclear ERGR1 protein.

Setting [8] is: all concentrations tested, added 2 hrs before BzATP and LPS, 0.1% BSA, p<0.01.

In the case of `C#CCN[C@@H]1CCc2ccc(OC(=O)N(C)CC)cc21` [Ladostigil, 6-(N-ethyl, N-methylcarbamyloxy)-N propargyl-1 (R)-aminoindan hemitartrate], the dermal thickness entry in test [1] is given as “significant reduction of dermal thickness”. The hypodermal thickness entry in test [1] is listed as “increase of hypodermal thickness”. For the same compound, the body weight loss entry is listed as “significantly reduced weight loss” in test [2] (females, 5 and 10 mg/kg); “significantly reduced weight loss” in test [2] (males, only at 10 mg/kg). Also, the “number of TGFβ-containing cells in the skin” value in test [3] was “significantly reduced the number of TGFβ-containing cells”. Further, in test [4], the “nuclear translocation of NFκB” value is on record as “decrease in the nuclear translocation of NFκB”. Also, the Emax in test [5] (Mus musculus, Microglia, 8 h, 1×10^−11-1×10^−9 M, read-out: maximal reduction of IL6) was approximately 50%; in test [6] (Mus musculus, Microglia, 8 h, 1×10^−11-1×10^−9 M, read-out: maximal reduction of IL1β), approximately 50%. For the same compound, the minimal effective concentration in test [5] (Mus musculus, microglia, BzATP/LPS, medium containing BSA, 8 hrs, read-out: lowest concentration that significantly decreased IL6 secretion) is 1e-07 µM; in test [6] (Mus musculus, microglia, BzATP/LPS, medium containing BSA, 8 hrs, read-out: lowest concentration that significantly decreased IL1β secretion), 1e-06 µM. For the same compound, the “reduction of IL6 release” value in test [5] (setting [8]) is listed as “reduced the 3 cytokines significantly”. In addition, the “reduction of IL6 compared with reduction of TNF” value in test [5] (all concentrations tested, p<0.001) was “greater than those of TNF”. The “reduction of IL1β release” value in test [6] (setting [8]) is reported as “reduced the 3 cytokines significantly”. Also, the “reduction of IL1β compared with reduction of TNFα” value in test [6] (ladostigil 1×10^−9 M, budesonide 1×10^−11 M) is reported as “greater than that of TNFα”. The “Mean conc. ± SEM of TNFAIP3 in microglial cytoplasm” value in test [7] (BzATP/LPS, ladostigil 1×10^−10 M, Medium 19.8 ± 0.6) was determined as 28.8 ± 0.9. The “change in cytoplasmic TNFαIP3 protein” value in test [7] (microglia, ladostigil 1×10^−10 M on top of BzATP/LPS) is given as “further increase”.
